Among the data in article PMC4774911, “Biochemical Screening of Five Protein Kinases from Plasmodium falciparum against 14,000 Cell-Active Compounds” (PLoS ONE, 2016) are Kd and PCT_INHIB_3D7_PFLDH values, retold here.

pKd: −log10 of the molar value. Several values for one entry are separate records, joined by “and”; a condition that tells them apart may be missing. Identical values can stand only once.

One experiment has as its target RPS6KA1 (Homo sapiens, UniProt Q15418). Put plainly: biochemical. On the set-up: endogenous in cells; host or cells: K562 cell extract; species or system K562 (extract); replicate k of n = 2 (each experiment ID is one independent experiment; two experiment IDs per compound). The settings on record: read-out: KDapp.
Another experiment addresses MAST3 (Homo sapiens, UniProt O60307). Put plainly: biochemical. The settings on record: read-out: KDapp. The arrangement: endogenous in cells; host or cells: K562 cell extract; species or system K562 (extract); replicate k of n = 2 (each experiment ID is one independent experiment; two experiment IDs per compound).
Another experiment concerns the target T1, MAP3K7 (Homo sapiens, UniProt O43318).
T1 sequence (O43318 1-606): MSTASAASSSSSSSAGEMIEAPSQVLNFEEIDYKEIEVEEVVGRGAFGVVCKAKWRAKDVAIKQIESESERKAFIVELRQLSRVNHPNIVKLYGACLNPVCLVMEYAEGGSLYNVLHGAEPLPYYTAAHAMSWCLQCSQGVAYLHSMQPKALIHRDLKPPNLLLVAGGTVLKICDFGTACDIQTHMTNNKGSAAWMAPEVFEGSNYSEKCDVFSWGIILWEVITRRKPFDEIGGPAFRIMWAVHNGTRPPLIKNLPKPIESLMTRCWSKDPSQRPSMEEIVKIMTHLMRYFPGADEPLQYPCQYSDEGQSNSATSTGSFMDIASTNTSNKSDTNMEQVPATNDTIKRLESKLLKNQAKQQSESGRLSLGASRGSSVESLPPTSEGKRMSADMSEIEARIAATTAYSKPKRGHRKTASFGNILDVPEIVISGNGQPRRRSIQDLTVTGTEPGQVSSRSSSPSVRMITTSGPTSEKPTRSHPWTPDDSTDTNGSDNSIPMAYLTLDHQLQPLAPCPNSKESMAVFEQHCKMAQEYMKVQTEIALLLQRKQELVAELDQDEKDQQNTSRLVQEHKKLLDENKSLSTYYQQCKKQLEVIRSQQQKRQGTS
Put plainly: biochemical. On the set-up: endogenous in cells; host or cells: K562 cell extract; species or system K562 (extract); replicate k of n = 2 (each experiment ID is one independent experiment; two experiment IDs per compound). The settings on record: read-out: KDapp.

The next experiment addresses T2, ULK3 (Homo sapiens, UniProt Q6PHR2).
T2 sequence (Q6PHR2 1-472): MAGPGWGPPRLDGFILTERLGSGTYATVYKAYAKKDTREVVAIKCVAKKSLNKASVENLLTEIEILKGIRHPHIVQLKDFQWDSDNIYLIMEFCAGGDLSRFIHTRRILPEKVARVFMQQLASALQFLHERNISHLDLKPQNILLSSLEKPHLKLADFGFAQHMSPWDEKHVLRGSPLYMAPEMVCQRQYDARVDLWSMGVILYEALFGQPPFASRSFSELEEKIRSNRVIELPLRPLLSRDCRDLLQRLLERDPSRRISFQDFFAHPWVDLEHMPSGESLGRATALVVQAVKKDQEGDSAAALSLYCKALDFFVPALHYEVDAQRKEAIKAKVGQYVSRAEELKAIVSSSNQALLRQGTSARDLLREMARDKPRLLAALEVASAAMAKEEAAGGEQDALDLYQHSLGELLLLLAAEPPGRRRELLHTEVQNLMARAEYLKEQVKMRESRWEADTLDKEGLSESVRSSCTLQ
Put plainly: biochemical. The settings on record: read-out: KDapp. On the set-up: endogenous in cells; host or cells: K562 cell extract; species or system K562 (extract); replicate k of n = 2 (each experiment ID is one independent experiment; two experiment IDs per compound).

In another experiment the target is T3, TGFBR1 (Homo sapiens, UniProt P36897).
T3 sequence (P36897 1-503): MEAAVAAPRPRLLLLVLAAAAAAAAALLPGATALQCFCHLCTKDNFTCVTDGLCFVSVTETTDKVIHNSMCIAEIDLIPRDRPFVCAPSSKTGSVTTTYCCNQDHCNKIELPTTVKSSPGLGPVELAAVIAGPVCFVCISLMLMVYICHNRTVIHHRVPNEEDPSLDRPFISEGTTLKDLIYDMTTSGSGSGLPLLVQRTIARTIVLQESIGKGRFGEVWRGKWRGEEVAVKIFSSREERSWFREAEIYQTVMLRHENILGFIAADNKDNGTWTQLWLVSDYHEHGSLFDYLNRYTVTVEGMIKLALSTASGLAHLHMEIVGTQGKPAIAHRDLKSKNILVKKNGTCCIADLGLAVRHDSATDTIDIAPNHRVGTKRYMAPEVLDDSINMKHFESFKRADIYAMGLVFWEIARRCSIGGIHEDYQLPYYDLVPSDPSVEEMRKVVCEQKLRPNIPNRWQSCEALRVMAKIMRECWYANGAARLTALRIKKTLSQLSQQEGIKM
Put plainly: biochemical. The arrangement: endogenous in cells; host or cells: K562 cell extract; species or system K562 (extract); replicate k of n = 2 (each experiment ID is one independent experiment; two experiment IDs per compound). The settings on record: read-out: KDapp.

The next experiment has as its system 3D7 PFLDH. On the set-up: method as in ChEMBL. Conditions: ref ChEMBL; cited from earlier work.

Chain of MAST3 (O60307 whole entry): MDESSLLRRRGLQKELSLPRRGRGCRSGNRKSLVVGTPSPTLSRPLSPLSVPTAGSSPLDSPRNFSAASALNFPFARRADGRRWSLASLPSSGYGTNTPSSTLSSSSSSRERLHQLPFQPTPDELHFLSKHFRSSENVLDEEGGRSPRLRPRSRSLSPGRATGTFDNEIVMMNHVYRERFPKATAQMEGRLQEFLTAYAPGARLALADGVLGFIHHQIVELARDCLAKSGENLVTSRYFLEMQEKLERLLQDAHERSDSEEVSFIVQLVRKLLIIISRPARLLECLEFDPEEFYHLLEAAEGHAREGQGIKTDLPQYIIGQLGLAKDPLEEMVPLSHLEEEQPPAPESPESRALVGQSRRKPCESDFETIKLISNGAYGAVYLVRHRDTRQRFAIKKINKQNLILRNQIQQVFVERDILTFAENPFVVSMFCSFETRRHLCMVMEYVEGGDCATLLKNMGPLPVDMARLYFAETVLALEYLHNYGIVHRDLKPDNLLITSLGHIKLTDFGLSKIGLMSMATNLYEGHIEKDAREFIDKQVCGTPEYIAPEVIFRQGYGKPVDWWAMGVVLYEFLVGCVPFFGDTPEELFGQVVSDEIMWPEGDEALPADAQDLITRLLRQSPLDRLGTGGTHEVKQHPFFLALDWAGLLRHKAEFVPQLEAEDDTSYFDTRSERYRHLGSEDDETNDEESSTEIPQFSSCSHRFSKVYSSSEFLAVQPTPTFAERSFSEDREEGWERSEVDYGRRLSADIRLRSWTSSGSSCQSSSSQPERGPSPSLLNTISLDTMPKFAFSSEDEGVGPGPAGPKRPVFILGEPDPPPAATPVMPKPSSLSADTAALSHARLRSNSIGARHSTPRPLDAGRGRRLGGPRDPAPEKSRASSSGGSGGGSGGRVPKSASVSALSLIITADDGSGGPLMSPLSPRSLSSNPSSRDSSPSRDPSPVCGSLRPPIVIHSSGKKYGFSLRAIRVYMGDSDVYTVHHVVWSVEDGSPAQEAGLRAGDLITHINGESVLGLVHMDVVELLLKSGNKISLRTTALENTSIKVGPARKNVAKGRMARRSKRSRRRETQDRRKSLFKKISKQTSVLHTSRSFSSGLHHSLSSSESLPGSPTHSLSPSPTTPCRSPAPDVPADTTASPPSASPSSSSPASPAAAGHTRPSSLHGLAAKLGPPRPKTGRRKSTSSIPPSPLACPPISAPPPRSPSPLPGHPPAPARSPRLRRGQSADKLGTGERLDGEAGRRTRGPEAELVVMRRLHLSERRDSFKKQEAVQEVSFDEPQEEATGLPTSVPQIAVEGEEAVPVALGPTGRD
Chain of RPS6KA1 (Q15418 whole entry): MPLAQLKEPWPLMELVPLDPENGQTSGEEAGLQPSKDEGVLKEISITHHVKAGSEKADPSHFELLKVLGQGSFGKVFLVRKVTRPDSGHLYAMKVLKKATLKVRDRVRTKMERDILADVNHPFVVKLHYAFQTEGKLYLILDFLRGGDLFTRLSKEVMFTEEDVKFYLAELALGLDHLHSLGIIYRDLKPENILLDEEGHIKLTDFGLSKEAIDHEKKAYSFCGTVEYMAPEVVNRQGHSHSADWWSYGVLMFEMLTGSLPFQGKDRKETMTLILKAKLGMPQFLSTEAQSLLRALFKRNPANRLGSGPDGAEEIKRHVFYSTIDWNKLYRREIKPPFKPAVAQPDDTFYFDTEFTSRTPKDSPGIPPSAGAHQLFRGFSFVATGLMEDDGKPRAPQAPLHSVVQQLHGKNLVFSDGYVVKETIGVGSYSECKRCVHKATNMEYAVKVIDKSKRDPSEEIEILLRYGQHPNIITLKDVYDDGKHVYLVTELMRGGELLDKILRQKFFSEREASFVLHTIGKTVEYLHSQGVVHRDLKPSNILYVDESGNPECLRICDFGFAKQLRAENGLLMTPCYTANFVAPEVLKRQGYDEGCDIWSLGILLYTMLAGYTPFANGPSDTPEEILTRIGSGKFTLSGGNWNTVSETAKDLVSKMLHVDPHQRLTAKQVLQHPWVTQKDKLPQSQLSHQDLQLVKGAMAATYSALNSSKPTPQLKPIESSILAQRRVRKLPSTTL

For `CN1CCN(c2ccc(Nc3ncc(C#N)c(Nc4ccccc4C(N)=O)n3)cc2)CC1.Cl` [TCMDC-134116], the pKd at RPS6KA1 was 7.02; at MAST3 it was 7.14; on MAP3K7, 5.83 and 6.09; on ULK3 it was 7.79 and 7.59.

Turning to `Cl.NCC1(c2nc(-c3ccc(Cl)c(O)c3)c(-c3ccncc3)[nH]2)CCCCC1` [TCMDC-141154], the pKd on TGFBR1 is 7.22 and 7.06.

With `CN(C)CC(O)COc1ccc(Nc2ncc([N+](=O)[O-])c(Nc3ccccc3O)n2)cc1.O=C(O)C(F)(F)F` (stereo not drawn) [TCMDC-141399], the PCT_INHIB_3D7_PFLDH in the experiment on 3D7 PFLDH was 0.
